What all share (type): cell-based
In assay [1] the test system is gram-negative and gram-positive bacterial strains. Kind of assay: Bacterial susceptibility testing, whole panel. The conditions noted are these: summary of Table 1. The procedure:
(§1) Minimal inhibitory concentrations (MIC) against a variety of gram-negative and gram-positive bacterial strains were determined by the broth microdilution method in accordance with the Clinical and Laboratory Standards Institute (CLSI) guidelines. In brief, organism suspensions were adjusted to a 0.5 McFarland standard to yield a final inoculum between 3×10^5 and 7×10^5 colony-forming units (CFU)/mL. Drug dilutions and inocula were made in sterile, cation adjusted Mueller-Hinton Broth (Beckton Dickinson). An inoculum volume of 100 μL was added to wells containing 100 μL of broth with 2-fold serial dilutions of drug. All inoculated microdilution trays were incubated in ambient air at 35° C. for 18-24 h. Following incubation, the lowest concentration of the drug that prevented visible growth (OD600 nm<0.05) was recorded as the MIC. Performance of the assay was monitored by the use of laboratory quality-control strains and levofloxacin, a compound with a defined MIC spectrum, in accordance with CLSI guidelines.

A further assay relates to P. acnes ATCC 6919. Kind of assay: Bacterial susceptibility testing, broth microdilution MIC. The note with it: Cutibacterium acnes, ATCC6919, 35° C., 18-24 h. The procedure: as §1
The subject of assay [2] is S. epidermidis ATCC 35984. The description is as above. The note with it: Staphylococcus epidermidis, ATCC35984, 35° C., 18-24 h. The procedure:
as §1

Another assay concerns L. rhamnosus ATCC 53103. The assay is described as above. The note with it: Lacticaseibacillus rhamnosus, ATCC53103, 35° C., 18-24 h. The procedure:
as §1

The test system of the next assay is S. pyogenes ATCC 12384. The assay is described as above. The note with it: Streptococcus pyogenes, ATCC12384, 35° C., 18-24 h. The procedure: as §1
For the next assay, the system named is S. pneumoniae ATCC 49619. The assay is described as above. The note with it: Streptococcus pneumoniae, ATCC49619, 35° C., 18-24 h. The procedure:
as §1

Assay [3] relates to N. cyriacigeorgica complex NBQAS 3295. The assay is described as above. The procedure: as §1
In another assay the test system is P. anaerobius DSM 20357. The assay is described as above. The note with it: Peptostreptococcus anaerobius, DSM20357, 35° C., 18-24 h. The procedure: as §1
Another assay concerns C. difficile ATCC 700057. The assay is described as above. The note with it: Clostridioides difficile, ATCC700057, 35° C., 18-24 h. The procedure: as §1
The subject of another assay is C. jeikeium NCTC 11914. The description is as above. The conditions noted are these: Corynebacterium jeikeium, NCTC11914, 35° C., 18-24 h. The procedure: as §1
Another assay concerns B. breve HM 412. Described as above. The note with it: Bifidobacterium breve, HM412, 35° C., 18-24 h. The procedure: as §1
The subject of the next assay is E. coli ATCC 25922. Described as above. The note with it: Escherichia coli, ATCC25922. The procedure: as §1
The test system of a further assay is E. faecalis ATCC 29212. Described as above. The conditions noted are these: Enterococcus faecalis, ATCC29212, 35° C., 18-24 h. The procedure:
as §1

The subject of assay [4] is B. thuringiensis ATCC 35646. The description is as above. The note with it: Bacillus thuringiensis, ATCC35646, 35° C., 18-24 h. The procedure: as §1
The subject of a further assay is C. sordellii ATCC 9714. Described as above. The note with it: Paraclostridium sordellii, ATCC9714, 35° C., 18-24 h. The procedure: as §1
For another assay, the system named is S. aureus ATCC 29213. Described as above. The note with it: for MIC: Staphylococcus aureus, ATCC29213, S. aureus ATCC 29213, broth microdilution, 35° C., 18-24 h. The procedure: as §1
In assay [5] the test system is L. monocytogenes ATCC 7644. The description is as above. The conditions noted are these: Listeria monocytogenes, ATCC7644, 35° C., 18-24 h. The procedure: as §1
A further assay deals with K. pneumoniae ATCC 13883. The description is as above. The note with it: Klebsiella pneumoniae, ATCC13883. The procedure:
as §1

[6] abbreviates: E. coli ATCC 25922, broth microdilution, 35° C., 18-24 h, read-out: MIC.

≈ marks a conversion by molar mass, not a printed value. Like-named read-outs stand apart in the source and are kept apart here.

With `C[C@@H](O)[C@H]1C(=O)N2C(C(=O)O)=C(S[C@@H]3CN[C@H](C(=O)N(C)C)C3)[C@H](C)[C@H]12` [Meropenem], the “activity against gram-positive bacteria” value in [1] is recorded as “do have activity against various strains of gram-positive bacteria”. Besides, the MIC was 0.06 µg/mL (≈ 0.156 µM) against P. acnes ATCC 6919; > 1 µg/mL in [2]; > 1 µg/mL with L. rhamnosus ATCC 53103; 0.008 µg/mL (≈ 0.0209 µM) with S. pyogenes ATCC 12384; 0.06 µg/mL (≈ 0.156 µM) with S. pneumoniae ATCC 49619; > 1 µg/mL in assay [3]. For the same compound, the MIC with P. anaerobius DSM 20357 was > 1 µg/mL; with C. difficile ATCC 700057, 1 µg/mL (≈ 2.61 µM); in the assay on C. jeikeium NCTC 11914, > 1 µg/mL; in the assay with B. breve HM 412, > 1 µg/mL; with E. coli ATCC 25922 (setting [6]), 0.03 µg/mL (≈ 0.0782 µM); against E. faecalis ATCC 29212, > 1 µg/mL. The MIC in assay [4] was determined as 0.06 µg/mL (≈ 0.156 µM); against C. sordellii ATCC 9714 it was 0.015 µg/mL (≈ 0.0391 µM).

Turning to `C[C@H]1COc2c(N3CCN(C)CC3)c(F)cc3c(=O)c(C(=O)O)cn1c23` [Levofloxacin], the MIC against P. acnes ATCC 6919 amounted to 0.5 µg/mL (≈ 1.38 µM); in [2], 0.125 µg/mL (≈ 0.346 µM); in the assay with L. rhamnosus ATCC 53103, 1 µg/mL (≈ 2.77 µM); in the assay on S. pyogenes ATCC 12384, 0.5 µg/mL (≈ 1.38 µM); in the assay with S. pneumoniae ATCC 49619, 1 µg/mL (≈ 2.77 µM); in [3] it was 8 µg/mL (≈ 22.1 µM). Besides, the MIC against P. anaerobius DSM 20357 came to 0.5 µg/mL (≈ 1.38 µM); with S. aureus ATCC 29213, 0.25 µg/mL (≈ 0.692 µM); against C. difficile ATCC 700057, 4 µg/mL (≈ 11.1 µM); in the assay on C. jeikeium NCTC 11914 it was 1 µg/mL (≈ 2.77 µM); in the assay on B. breve HM 412, 4 µg/mL (≈ 11.1 µM); in the assay with E. coli ATCC 25922 (setting [6]) it was 0.03 µg/mL (≈ 0.083 µM). Further, the MIC in assay [5] was 1 µg/mL (≈ 2.77 µM); against E. faecalis ATCC 29212, 1 µg/mL (≈ 2.77 µM); in assay [4], 0.125 µg/mL (≈ 0.346 µM); against C. sordellii ATCC 9714, 1 µg/mL (≈ 2.77 µM).

For the compound `N#CC1CN(C[C@@H](Cc2ncnc(O)c2O)c2ccc(C#Cc3ccc(CN4CCOCC4)cc3)cc2)C1` [Compound A, (S)-1-(3-(5,6-dihydroxypyrimidin-4-yl)-2-(4-((4-(morpholinomethyl)phenyl)ethynyl)phenyl)propyl)azetidine-3-carbonitrile], the “selectivity for gram-negative bacteria over gram-positive bacteria” value in assay [1] is “high selectivity”. The MIC (in the assay with P. acnes ATCC 6919; in assay [2]; against L. rhamnosus ATCC 53103; against S. pyogenes ATCC 12384; against S. pneumoniae ATCC 49619; in assay [3]) was > 64 µg/mL each time. Besides, the MIC was > 64 µg/mL against P. anaerobius DSM 20357; > 64 µg/mL in the assay on S. aureus ATCC 29213; > 64 µg/mL against C. difficile ATCC 700057; > 64 µg/mL against C. jeikeium NCTC 11914; > 64 µg/mL in the assay on B. breve HM 412; 0.5 µg/mL (≈ 0.981 µM) in the assay on E. coli ATCC 25922 (setting [6]). The MIC with E. coli ATCC 25922 (E. coli cell lines, strain not named, read-out: MIC values) is < 1 µg/mL; in assay [5] it was > 64 µg/mL; against E. faecalis ATCC 29212, > 64 µg/mL; in [4] it was > 64 µg/mL; with K. pneumoniae ATCC 13883 (K. pneumoniae ATCC 13883, broth microdilution, 35° C., 18-24 h, read-out: MIC), 0.5 µg/mL (≈ 0.981 µM); in the assay on K. pneumoniae ATCC 13883 (K. pneumoniae cell lines, strain not named, read-out: MIC values), < 1 µg/mL. Besides, the MIC with C. sordellii ATCC 9714 was > 64 µg/mL. Besides, in the assay with S. aureus ATCC 29213 (gram-positive bacterial cell lines, such as S. aureus), the “inhibition of gram-positive bacterial cell lines” value is “does not inhibit”.

(Values after patent US11731962B2, “LpxC inhibitor and methods of making” (priority 2020, dated 2023).)
